Assay results taken from article PMC4257840 (Journal of Medicinal Chemistry, 2014).

Assays:
[1] = Pharmacokinetics after oral and iv dosing to rats; assay type: in vivo, Sprague-Dawley rat; conditions: rat
Protocol: (§1) Appendix 2. Pharmaco kinetics an d P l a s ma Protein Binding […]
Pharma cokinetics. In vivo PK characteristics were determined using non- fasted Sprague-Dawle y rats (mal e, 200-300 g, 10- 16 weeks of age) with groups of three animals per route per compound. Soluble formulations were developed and verified b y HP LC/UV s o that compounds were dosed discretel y b y the iv (1 mg/kg, 1 mL/kg) and po (5 mg/kg, 5 mL/kg) routes. Blood samples were obtained at various times after dosing and plasma prepared for LC -MS-MS quantification of the test substance after inclusion of an intern al standard . PK p aramet ers were calculated usin g a non -compartmental model in WinNonlin v5.2.
(§2) Plasma Protein Binding Assay. PPB was determined with a Rapid Equilibrium Dialysis device using 8 kDa molecular weight cut-off inserts (Fisher Scientific UK Ltd, Leicest ershire, UK) as described b y the manufacturer. R at (Sprague Dawl e y strain) plasma EDTA K2 (mixed gender, pooled, SeraLab, West Sussex, UK) was thawed and centrifuged at 13,000 x g for 10 min to remove precipitates before being spiked with compounds (5 µM). The concentrations of compounds in the plasma and buffer chambers were determined b y LC -MS-MS (AB Sciex 3200 QTrap) anal ysis after 4 h incubation at 37 °C. Binding was calculated from the concentration percentage in both chambers as shown below. Assays were p erfo rmed in replicate and the data

[2] = Plasma protein binding, Rapid Equilibrium Dialysis; assay type: in vitro ADME; conditions: both sexes, Sprague Dawley, plasma (EDTA K2, pooled), rat plasma, 4 h at 37 °C, read-out: PPB (converted)
Protocol: as §1, §2

human plasma thrombin = target: T1, human plasma thrombin (Homo sapiens, UniProt P00734); assay: Protease counter-screening: Thrombin; assay type: biochemical; conditions: test concentration 0.3-100 µM
T1 construct: thrombin in modified HEPES buffer pH 7.5; from tissue; host or cells: human plasma
Protocol: (§3) Appendix 7. Protease Counter -Screening
(§4) Protease counter-screeni ng was performed using the methods described below. Initial screening was conducted in duplicate using a single test substance concentration of 10 µ M .
(§5) Additional assays were conducted in replicate for selected pairin gs of test s ubstance and enz yme in order to enable the determination of IC50 values using conventional procedures.
(§6) Determination of K i was made using the Batch K i program (Biokin Ltd, Pullman, WA) to derive values from the Morrison equation: […]
(§7) Where [E ] is the active enz yme concentration, Kiapp is the apparent inhibition const ant, v 0 is the control velocit y in the absence of inhibitors, vb is the background velocity, v is the initial reaction velocit y in the presence of inhibitor, and I is the inhibitor concentration.Thence:
(§8) Where [S ] is the substrate concentration and KM is the Michealis constant.
(§9) Caspase 1: Activity against human recombinant caspase 1 expressed in E. coli was tested using Ac-YVAD- AMC as the substrate. Test compound or vehicle was pre- incubated with 600 […]
(§10) followed by excitation/emission at 485/535 nm. […]
(§11) AMC formation was read at 360 nm/465 nm.
(§12) Cathepsin L2: Human recombinant cathepsin L2 expressed in NS0 cells was used as the enzyme source. […] Form ation of AMC was measured at 360 […]
(§13) The amount of AMC formed was read spectrofluorimetricall y at 360 nm/465 nm. […]

[3] = target: T2, Human recombinant ADAM-17 (Homo sapiens, UniProt P78536); assay: Protease counter-screening: ADAM-17/TACE; assay type: biochemical
T2 construct: host or cells: Sf21 insect cells
Protocol: as §3, §4, §5, §6
MMP-9: Human recombinant MMP-9 proenz yme ex pressed in mammalian cells was activated with APMA for 60 min at 37 °C. […] The amount of MCA-P LG formed was read spectrofluorimetricall y at 340 nm/400 nm.
ADAM-17/TACE: Human recombinant ADAM-17 expressed in Sf21 insect cells was used as enz yme sour ce. […] T he amount of MCA-P LAQA formed w as read spectro fluorimetricall y at 340 nm/400 nm.
Angiotensin converting enzyme: Test compound or vehicle was pre- incubated in modified HEPES buffer pH 7.5 for 15 min at 25 °C with 31 mU/mL angiotensin converting enz yme from rabbit lung. […] The amount of substrate remaining was read spectrophotometricall y at 340 nm and used to deri ve the extent of reaction and its inhibition. […]

[4] = target: T3, Human recombinant cathepsin L2 (Homo sapiens, UniProt O60911); assay: Protease counter-screening: Cathepsin L2; assay type: biochemical
T3 construct: host or cells: NS0 cells
Protocol: as §3, §4, §5, §6, §7, §8, §9, §10, §11, §12, §13

T3 sequence (O60911 114-334): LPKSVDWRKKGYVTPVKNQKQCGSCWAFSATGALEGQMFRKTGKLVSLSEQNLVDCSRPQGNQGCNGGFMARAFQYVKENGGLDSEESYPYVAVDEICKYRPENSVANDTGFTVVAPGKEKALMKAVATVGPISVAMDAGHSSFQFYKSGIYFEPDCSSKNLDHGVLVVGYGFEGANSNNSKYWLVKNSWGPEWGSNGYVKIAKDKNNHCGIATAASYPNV
T2 sequence (P78536 215-824): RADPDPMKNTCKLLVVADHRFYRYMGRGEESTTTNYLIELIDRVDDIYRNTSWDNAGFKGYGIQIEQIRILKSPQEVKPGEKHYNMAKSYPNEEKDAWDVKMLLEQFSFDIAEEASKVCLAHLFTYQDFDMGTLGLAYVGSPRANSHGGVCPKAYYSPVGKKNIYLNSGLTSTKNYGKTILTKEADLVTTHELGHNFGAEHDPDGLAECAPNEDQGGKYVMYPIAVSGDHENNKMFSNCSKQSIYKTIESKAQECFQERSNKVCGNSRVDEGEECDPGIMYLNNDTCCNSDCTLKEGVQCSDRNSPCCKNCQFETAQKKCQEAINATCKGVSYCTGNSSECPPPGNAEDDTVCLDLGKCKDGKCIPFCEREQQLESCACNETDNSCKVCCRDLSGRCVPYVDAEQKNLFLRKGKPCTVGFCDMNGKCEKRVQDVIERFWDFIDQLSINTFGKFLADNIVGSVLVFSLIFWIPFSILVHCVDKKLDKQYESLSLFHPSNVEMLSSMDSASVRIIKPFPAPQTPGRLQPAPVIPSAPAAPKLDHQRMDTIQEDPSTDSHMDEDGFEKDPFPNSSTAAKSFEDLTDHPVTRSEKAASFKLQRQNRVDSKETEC

SMILES: CC(C)[C@H](NC(=O)[C@H](C)NC(=O)[C@@H](NC(=O)c1ccccc1)C(C)(C)C)C(=O)C(=O)NCc1ccccc1 [Compound 38, N-{(S)-1-[(S)-1-((S)-1-Benzylaminooxalyl-2-methyl-propylcarbamoyl)-ethylcarbamoyl]-2,2-dimethyl-propyl}-benzamide]
- Cmax ([1]; male, Sprague-Dawley, plasma, 5 mg/kg po, mean ± SE, n = 3): 732 ± 3 nM
- bioavailability ([1]; male, Sprague-Dawley, plasma, po, 5 mg/kg, 5 mg/kg po compared with 1 mg/kg iv, nonfasted Sprague–Dawley rats, mean ± SE, n = 3, read-out: F % (bioavailability)): 33 ± 8%
- free conc Cmax ([1]; 5 mg/kg po): 29 ± 0 nM
- fraction unbound at 4 h, 5 µM [2]: 0.04
- IC50 (human plasma thrombin): > 100 µM
- inhibition at 10 µM [3]: 0%
- IC50 [4]: 3.53 µM
